Experimental data as given in article PMC6830212, “Crystal structure of the putative cyclase IdmH from the indanomycin nonribosomal peptide synthase/polyketide synthase” (IUCrJ, 2019).

Columns and labels:
[1] = target: T1, IdmH (Streptomyces antibioticus, UniProt C5HV10); test: 1H-15N HSQC-TROSY chemical shift perturbation titration; assay type: binding; settings: 0.2 mM 15N-labelled IdmH, 0-200 uM indanomycin; 20 mM Tris pH 7.3, 50 mM NaCl, 1 mM DTT, 25 C; proposed active-site pocket; proposed (not shown) reaction product
T1 construct: full length (145 residues), N-terminal His6 tag with thrombin site (pET-28a), E. coli BL21(DE3); homodimer

[2] = target: the molecule itself; test: SEC + other: LC/MS; oligomeric state of purified, tag-cleaved wild-type IdmH; conditions of this analysis not told in the text (Supplementary Fig. S4)

Molecule: CC/C(=C\C=C\[C@@H]1C=C[C@@H]2[C@@H](CC)CC[C@H]2[C@@H]1C(=O)c1ccc[nH]1)[C@@H]1O[C@@H]([C@@H](C)C(=O)O)CC[C@@H]1C [compound 1, indanomycin]
- 1H-15N HSQC-TROSY chemical shift perturbation titration [1]: indanomycin can bind to IdmH in the proposed active site

B1: wild-type IdmH (full-length putative indane cyclase from the indanomycin NRPS/PKS pathway) (enzyme, UniProt C5HV10 1-145, looked up)
chain: MAHQPSDTIAGLYEAFNSGDLETLRELIAPDAVIHLPGTAGDAEHPPGTPRDREGWLGVWQFTQAFFPDMTATVQDIVQTGDLVATRCVARGTHSIEFMGVPPTGRPFEMTMLNMSRVRDGRIVEHWTISDNVTMLAQLGVKASL
notes: IdmH, Streptomyces antibioticus NRRL 8167, full-length idmH gene (ACN69984.1) amplified from genomic DNA; 145 amino acids as printed; Cloned in pET-28a at NdeI; residues of the thrombin site may remain at the N-terminus after cleavage (surmised); also called full-length IdmH; native IdmH; source: E. coli BL21(DE3), purified (HisTrap, thrombin cleavage, HiTrap Q, Superdex 75 SEC); not shown: His6, …
- stoichiometry N [2]: 2
